{"source": "paper PMC6877910", "about": "“Astrocyte-Targeted Transporter-Utilizing Derivatives of Ferulic Acid Can Have Multifunctional Effects Ameliorating Inflammation and Oxidative Stress in the Brain” (Oxidative Medicine and Cellular Longevity, 2019)", "key": {"[1]": {"system": "peroxidase activity of cyclooxygenases (COX)", "assay": "Peroxidase activity of cyclooxygenases in cell lysates (fluorometric kit)", "format": "biochemical", "conditions": "100 μM; 30 min; assay does not differentiate COX from LOX", "method": "A coupled oxidation-reduction fluorometric assay was used to assess the inhibitory effect of compounds (100 μM) together with positive controls on the peroxidase activity of cyclooxygenases (COX) (ab204699 Cyclooxygenase Activity Assay Kit, Abcam, Cambridge, UK). The method has been done and validated according to the manufacturer's protocol. Briefly, studied compounds (100 μM) and the reaction mixture were incubated with the cell lysates at room temperature and the reaction was initiated by adding arachidonic acid/NaOH solution. The fluorescence was read in a kinetic mode after every 15 seconds for 30 minutes by the EnVision plate reader (EnVision, PerkinElmer, Inc., Waltham, MA, USA) at λex 535 nm and λem 587 nm."}, "[2]": {"assay": "Intracellular unbound drug concentration ratio (Kp,uu) in astrocytes", "format": "in vitro ADME", "conditions": "C57BL/6J, mouse, read-out: Kp,uu (unbound intracellular : extracellular ratio)", "method": "The unbound fraction of FA and its derivatives 1-2 was determined at 10 μM in cell homogenate by using a Rapid Equilibrium Dialysis (RED) device (Thermo Fisher Scientific, Inc., Waltham, MA, USA). Briefly, the cell homogenate was prepared from astrocyte cell suspension (10 × 10^6 cells/mL) in HBSS with a SoniPerp 150 Plus disintegrator (MSE Ltd., London, UK) for 2 s × 3. 100 μL of cell homogenate spiked with the studied compound was added to the reaction chamber, and 350 μL of HBSS buffer was added to the buffer chamber of the RED plate. The dialysis plate was incubated at 37°C for 4 h with shaking. […]\nThe drug concentration ratio in astrocytes (Kp) was determined at 0.01-1.0 μM concentrations by comparing the cellular uptake from the cell lysates (0.1 M NaOH) to the concentration detected from the surrounding buffer (HBSS) collected before cell lysing as described by Mateus et al.: (3) Kp=Acell/Vcell/Cmedium, where Acell is the amount of compound in the cell lysate (nmol), Vcell is the astrocyte cell volume (0.05810^−15 L/cell) for 10 × 10^4 cells/well, and Cmedium is the compound concentration in the surrounding buffer. The unbound drug concentration ratio (Kp,uu) was then calculated by multiplying the drug concentration ratio (Kp) by unbound drug fraction (fu,cell) as described by Mateus et al.: (4) Kp,uu=Kp×fu,cell."}, "[3]": {"conditions": "5 h incubation in vitro; previous study; cited from earlier work"}, "[4]": {"conditions": "mouse brain in vivo; previous study; cited from earlier work"}, "[5]": {"system": "LPS-induced lipid peroxidation in primary astrocytes", "assay": "LPS-induced lipid peroxidation (malondialdehyde formation) in primary astrocytes", "format": "cell-based, mouse", "conditions": "50 μM compound with 0.1 μg/mL LPS, 24 h", "method": "Primary astrocytes were seeded at the density of 2 × 10^5 cells/well onto collagen-coated 6-well plates. The cells were used for the experiments 2 days after seeding, and first, they were treated with 0.1 μg/mL lipopolysaccharide (LPS) in prewarmed HBSS buffer (250 μL) at 37°C for 24 h. The control cells were treated with prewarmed HBSS buffer only. The ability of compound to inhibit the oxidative stress was evaluated by adding FA (50 μM) or its derivatives 1-3 in prewarmed HBSS buffer (250 μL) together with LPS and incubating the cells at 37°C for 24 h. Tocopherol (vitamin E) was used as a positive control. […] The mixtures were then centrifuged at 10 000 × g for 10 min, and 50 μL of the supernatant was analyzed on a 96-well plate, each experiment as three technical replicates from three biological replicates. The fluorescence was read by the EnVision plate reader (EnVision, PerkinElmer, Inc., Waltham, MA, USA) at λex 532 nm and λem 553 nm. The amount of produced malondialdehyde (MDA) in each experiment was quantified from the standard curve; various amounts (1-800 μM) of MDA and thiobarbituric acid in water were incubated in a thermoshaker at 95°C for 1 h and analyzed simultaneously as duplicates with each studied batch. […] The results were analyzed as μmol of formed MDA per mg protein."}, "[6]": {"system": "NF-κB", "assay": "Total amount of NF-κB p65 (ELISA) in cells", "format": "cell-based, mouse", "conditions": "100 μM; 24-96 h incubation", "method": "Enzyme-Linked Immunosorbent Assay (ELISA) kits were used (mTOR SimpleStep ELISA Kit and NFκB p65 Total SimpeStep ELISA Kit, Abcam, Cambridge, UK) to quantify mammalian (or mechanistic) target of rapamycin (mTOR) and transcription factor NF-κB amounts, respectively. […] The control wells were treated with the solvent only (0.5% DMSO). Cells were solubilized using the provided extraction buffer with the kit, incubated on ice for 20 minutes and centrifuged at 18 000 × g for 20 min at 4°C. The supernatants were stored at -80°C till the day of the analysis. Standards and samples were then analyzed following the manufacturer's protocol (ELISA sandwich method) and by reading the absorbance with the EnVision plate reader (EnVision, PerkinElmer, Inc., Waltham, MA, USA) at 450 nm. The results were analyzed as pmol of formed mTOR or NF-κB per mL."}, "[7]": {"assay": "Bioconversion in mouse brain S9 subcellular fraction", "format": "in vitro ADME"}, "[8]": {"conditions": "cited from earlier work"}}, "note": "Read-outs that look alike come from different tables or passages of the source.", "data": [{"smiles": "COc1cc(/C=C/C(=O)O)ccc1O", "note": "[FA, trans-4-hydroxy-3-methoxycinnamic acid, reference compound]", "values": [{"measurement": "Inhibition of peroxidase activity of COX enzymes", "setting": "[1]", "result": "inhibited the cellular peroxidase activity of COX enzymes"}]}, {"smiles": "COc1cc(C=CC(=O)NCc2cccc(CC(N)C(=O)O)c2)ccc1O", "note": "(stereo not shown) [FA-derivative 1]", "values": [{"measurement": "Kp uu", "setting": "[2]; lower concentrations (<0.1 μM)", "result": "0.25 to 2.14"}, {"measurement": "FA released / stability in mouse brain S9 subcellular fraction", "setting": "[3]", "result": "remained intact"}, {"measurement": "FA released in the brain", "setting": "[4]", "result": "did not release any FA"}]}, {"smiles": "COc1cc(C=CC(=O)Nc2cccc(CC(N)C(=O)O)c2)ccc1O", "note": "(stereo not shown) [FA-derivative 2]", "values": [{"measurement": "Kp uu", "setting": "[2]; throughout the studied concentrations (0.01-1.0 μM)", "result": "0.83 to 1.74"}, {"measurement": "MDA levels lower than in the control incubation", "setting": "[5]", "result": "approximately 12%"}, {"measurement": "Effect on total NF-κB levels", "setting": "[6]", "result": "did not exert any effects"}, {"measurement": "FA released in the brain", "setting": "[4]", "result": "less than 5%"}]}, {"smiles": "COc1cc(C=CC(=O)Oc2cccc(CC(N)C(=O)O)c2)ccc1O", "note": "(stereo not shown) [FA-derivative 3]", "values": [{"measurement": "Bioconversion in the presence of donepezil", "setting": "[7]", "result": "no bioconversion at all was observed"}, {"measurement": "half-life", "setting": "[7]", "result": "~3.58", "unit": "h"}, {"measurement": "Bioconversion in human plasma", "setting": "[8]; in vitro human data", "result": "rather insignificant"}, {"measurement": "Human hepatic intrinsic clearance, times slower than in mouse", "setting": "[8]; in vitro human data", "result": 10, "unit": "times"}, {"measurement": "Stability in human plasma and liver S9 subcellular fraction, times more stable (than in mouse)", "setting": "[8]; previous study", "result": 10, "unit": "times"}]}]}
